As a reminder, the Kd is the concentration at which binding is half-saturated. The term IC50 denotes the concentration needed to halve the response being measured.

The structures appear in SMILES notation. Where two headings read alike, the source gives them in different places.

Experiment [1] has as its target T1, p56lck GST-SH2 (lck SH2 domain) (Homo sapiens, UniProt P06239).
T1 construct: GST (N)
Kind of experiment: Receptor-ligand equilibrium binding constants by surface plasmon resonance (biosensor), lck SH2 domain. As to conditions: Table 1, compounds of formula (II). Background: In SPR one partner is held on a chip, and binding of the other changes the refractive index at the surface.

Experiment [2] has as its system Inter-leukin 2 (IL-2) production by activated Human Primary T Lymphocytes. As to the kind of experiment: Primary T cell assay: inhibition of IL-2 production by activated human primary CD4 positive T lymphocytes. Type of experiment: cell-based. Particulars: Table 5, mean IC50 value, CD4 positive T cells activated with anti-CD3/anti-CD28, IL-2 by ELISA, read-out: IC50 (blocking IL-2 production). Background: ELISA stands for enzyme-linked immunosorbent assay.

T1 sequence (P06239 127-224 limits assumed): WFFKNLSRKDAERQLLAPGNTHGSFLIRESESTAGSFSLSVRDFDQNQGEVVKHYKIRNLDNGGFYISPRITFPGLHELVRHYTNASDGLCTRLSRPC

In experiment [1], `COc1ccc(Cn2ccc(C)c(NC(=O)C(Cc3ccc(C(C)(C)C(=O)O)cc3)NC(=O)Cc3ccc(Oc4ccccc4)cc3)c2=O)cc1` (centres unmarked) [Compound 172] registered a Kd of 0.66 µM. The half-maximal inhibitory concentration (IC50) in experiment [2] (Homo sapiens, CD4 positive) was found to be 96 µM.

As for `COc1ccc(Cn2ccc(C)c(NC(=O)C(Cc3ccc(C(C)(C)C(=O)O)cc3)NC(=O)Cc3ccc(C(C)(C)C)cc3)c2=O)cc1` (centres unmarked) [Compound 173], in experiment [1], binding was put at a Kd of 0.31 µM. For the same compound, the IC50 in experiment [2] (Homo sapiens, CD4 positive) came to 93 µM.

`COc1ccc(Cn2ccc(C)c(NC(=O)C(Cc3ccc(C(C)(C)C(=O)O)cc3)NC(=O)COc3cccc4ccccc34)c2=O)cc1` (centres unmarked) [Compound 174]: the Kd in experiment [1] is 1 µM. For the same compound, in experiment [2] (Homo sapiens, CD4 positive), the concentration for half-maximal inhibition (IC50) was 67 µM.

With `COc1ccc(Cn2ccc(C)c(NC(=O)C(Cc3ccc(C(C)(C)C(=O)O)cc3)NC(=O)COc3cccc4c(N(C)C)cccc34)c2=O)cc1` (centres unmarked) [Compound 175], the Kd in experiment [1] is 0.78 µM. The half-inhibitory concentration (IC50) in experiment [2] (Homo sapiens, CD4 positive) turned out to be 108 µM.

Turning to `COc1ccc(C(C)n2ccc(C)c(NC(=O)C(Cc3ccc(C(C)(C)C(=O)O)cc3)NC(=O)Cc3cccc4ccccc34)c2=O)cc1` (centres unmarked) [Compound 178], in experiment [1], the equilibrium dissociation constant (Kd) was 0.68 µM. Besides, in experiment [2] (Homo sapiens, CD4 positive), the IC50 turned out to be 65 µM.

For `COc1ccc(Cn2ccc(C)c(NC(=O)C(Cc3ccc(C(C)(C)C(=O)O)cc3)NC(=O)C(C)(C)c3ccccc3)c2=O)cc1` (centres unmarked) [Compound 180], the dissociation constant Kd in experiment [1] came to 2.5 µM. Also, in experiment [2] (Homo sapiens, CD4 positive), the IC50 was 82 µM.

For `Cc1ccn(CCCc2ccccc2)c(=O)c1NC(=O)C(Cc1ccc(C(C)(C)C(=O)O)cc1)NC(=O)Cc1cccc2ccccc12` (centres unmarked) [Compound 182], in experiment [1], the affinity, expressed as Kd, was 2.1 µM. For the same compound, in experiment [2] (Homo sapiens, CD4 positive), the IC50 stood at 64 µM.

In turn, `COc1ccc(C(C)n2ccc(C)c(NC(=O)C(Cc3ccc(C(C)(C)C(=O)O)cc3)NC(=O)C(C)(C)c3ccc4ccccc4c3)c2=O)cc1` (centres unmarked) [Compound 184] had a Kd in experiment [1] of 1.3 µM. In experiment [2] (Homo sapiens, CD4 positive), the half-maximal inhibitory concentration (IC50) stood at 53 µM.

The compound `COc1ccc(Cn2ccc(C)c(NC(=O)C(Cc3ccc(C(C)(C)C(=O)O)cc3)NC(=O)C(C)(C)c3ccc(C(C)(C)C)cc3)c2=O)cc1` (centres unmarked) [Compound 186] came in with a Kd in experiment [1] of 0.78 µM. The 50% inhibitory concentration (IC50) in experiment [2] (Homo sapiens, CD4 positive) came to 41 µM.

Compound `COc1ccc(Cn2ccc(C)c(NC(=O)C(Cc3ccc(C(C)(C)C(=O)O)cc3)NC(=O)Cc3c(OC)ccc4ccccc34)c2=O)cc1` (centres unmarked) [Compound 187] yielded a Kd in experiment [1] of 0.18 µM. Further, the IC50 in experiment [2] (Homo sapiens, CD4 positive) was 52 µM.

As for `CCCCCn1ccc(C)c(NC(=O)C(Cc2ccc(C(C)(C)C(=O)O)cc2)NC(=O)Cc2ccc3ccccc3c2)c1=O` (centres unmarked) [Compound 192], in experiment [1], the Kd is 1.2 µM. Also, the half-maximal inhibitory concentration (IC50) in experiment [2] (Homo sapiens, CD4 positive) was 169 µM.

For the compound `Cc1ccn(CC2CCCCC2)c(=O)c1NC(=O)C(Cc1ccc(C(C)(C)C(=O)O)cc1)NC(=O)Cc1cccc2ccccc12` (centres unmarked) [Compound 194], the dissociation constant (Kd) in experiment [1] came out at 2.3 µM. Further, in experiment [2] (Homo sapiens, CD4 positive), the concentration for half-maximal inhibition (IC50) came to 84 µM.

Consider `Cc1ccn(CC2CCCCC2)c(=O)c1NC(=O)C(Cc1ccc(C(C)(C)C(=O)O)cc1)NC(=O)Cc1ccc2ccccc2c1` (centres unmarked) [Compound 195], for which the dissociation constant Kd in experiment [1] is 1.1 µM. Also, the IC50 in experiment [2] (Homo sapiens, CD4 positive) amounted to 63 µM.

The compound `Cc1ccn(CC2CCCCC2)c(=O)c1NC(=O)C(Cc1ccc(C(C)(C)C(=O)O)cc1)NC(=O)C(C)(C)c1ccc2ccccc2c1` (centres unmarked) [Compound 196] had a Kd in experiment [1] of 5.4 µM. Besides, the IC50 in experiment [2] (Homo sapiens, CD4 positive) stood at 29 µM.

The compound `Cc1ccn(CCc2ccccc2)c(=O)c1NC(=O)C(Cc1ccc(C(C)(C)C(=O)O)cc1)NC(=O)Cc1ccc2ccccc2c1` (centres unmarked) [Compound 200] registered a dissociation constant (Kd) in experiment [1] of 2.2 µM. The IC50 in experiment [2] (Homo sapiens, CD4 positive) stood at 87 µM.

In turn, `CCCCCCn1ccc(C)c(NC(=O)C(Cc2ccc(C(C)(C)C(=O)O)cc2)NC(=O)COc2ccccc2)c1=O` (centres unmarked) [Compound 205] returned an equilibrium dissociation constant (Kd) in experiment [1] of 1.9 µM. The IC50 in experiment [2] (Homo sapiens, CD4 positive) is 136 µM.

The compound `CCCCCCn1ccc(C)c(NC(=O)C(Cc2ccc(C(C)(C)C(=O)O)cc2)NC(=O)Cc2ccc(OC)cc2)c1=O` (centres unmarked) [Compound 208] gave a Kd in experiment [1] of 0.8 µM. In experiment [2] (Homo sapiens, CD4 positive), the 50% inhibitory concentration (IC50) came to 279 µM.

Regarding `CCCCCCn1ccc(C)c(NC(=O)C(Cc2ccc(C(C)(C)C(=O)O)cc2)NC(=O)Cc2ccc(C(F)(F)F)cc2)c1=O` (centres unmarked) [Compound 209], the dissociation constant Kd in experiment [1] was determined as 0.19 µM. Moreover, the IC50 in experiment [2] (Homo sapiens, CD4 positive) stood at 92 µM.

In the case of `Cc1ccn(CC2(c3ccccc3)CC2)c(=O)c1NC(=O)C(Cc1ccc(C(C)(C)C(=O)O)cc1)NC(=O)Cc1cccc2ccccc12` (centres unmarked) [Compound 213], binding in experiment [1] was put at a Kd of 2 µM. For the same compound, in experiment [2] (Homo sapiens, CD4 positive), the concentration for half-maximal inhibition (IC50) is 166 µM.

With `Cc1ccn(CC2(c3ccccc3)CC2)c(=O)c1NC(=O)C(Cc1ccc(C(C)(C)C(=O)O)cc1)NC(=O)Cc1ccc2ccccc2c1` (centres unmarked) [Compound 214], binding in experiment [1] was characterised by a dissociation constant (Kd) of 1.2 µM. In experiment [2] (Homo sapiens, CD4 positive), the 50% inhibitory concentration (IC50) amounted to 117 µM.

`Cc1ccn(CC2(c3ccccc3)CC2)c(=O)c1NC(=O)C(Cc1ccc(C(C)(C)C(=O)O)cc1)NC(=O)C(C)(C)c1ccc2ccccc2c1` (centres unmarked) [Compound 215]: in experiment [1], the Kd came to 5.9 µM. For the same compound, the IC50 in experiment [2] (Homo sapiens, CD4 positive) came to 36 µM.

Consider `COc1ccc(Cn2ccc(C)c(NC(=O)C(Cc3ccc(C(C)(C)C(=O)O)cc3)NC(=O)Cc3cccc4ccccc34)c2=O)cc1` (centres unmarked) [Compound 216], for which the equilibrium dissociation constant (Kd) in experiment [1] came to 190 µM. Further, the 50% inhibitory concentration (IC50) in experiment [2] amounted to 193 µM.

The compound `COc1ccc(Cn2ccc(C)c(NC(=O)C(Cc3ccc(C(C)(C)C(=O)O)cc3)NC(=O)C(C)(C)c3ccc(C(F)(F)F)cc3)c2=O)cc1` (centres unmarked) [Compound 217] came in with a dissociation constant Kd in experiment [1] of 1.3 µM. In experiment [2] (Homo sapiens, CD4 positive), the IC50 worked out at 70 µM.

In the case of `COc1ccc(Cn2ccc(C)c(NC(=O)[C@H](Cc3ccc(C4(C(=O)O)CC4)cc3)NC(=O)Cc3ccc4ccccc4c3)c2=O)cc1` [Compound 218, 3-[2'-(S)-(2""-Naphthylacetyl)amino-3'-[4"-(1'"-carboxy)cyclopropyl]benzene]propanoylamino-1-(4-methoxybenzyl)-4-methyl-2-pyridone], the Kd in experiment [1] worked out at 1.8 µM. For the same compound, in experiment [2] (Homo sapiens, CD4 positive), the IC50 is 90 µM.

In the case of `COc1ccc(Cn2c(C)cc(C)c(NC(=O)[C@H](Cc3ccc(C(C)(C)C(=O)O)cc3)NC(=O)Cc3ccc4ccccc4c3)c2=O)cc1` [Compound 219], binding in experiment [1] was put at a Kd of 2.2 µM. Also, in experiment [2] (Homo sapiens, CD4 positive), the IC50 stood at 70 µM.

In turn, `COc1ccc(Cn2cc(Br)c(C)c(NC(=O)[C@H](Cc3ccc(C(C)(C)C(=O)O)cc3)NC(=O)Cc3ccc4ccccc4c3)c2=O)cc1` [Compound 220, 3-[2'-(S)-(2""-Naphthylacetyl)amino-3'-[4"-(1'"-carboxy-1'"-methyl)ethyl]benzene]propanoylamino-5-bromo-1-(4-methoxybenzyl)-4-methyl-2-pyridone] gave a Kd in experiment [1] of 0.17 µM. In addition, in experiment [2] (Homo sapiens, CD4 positive), the half-inhibitory concentration (IC50) came out at 31 µM.

In turn, `CCc1cn(Cc2ccc(OC)cc2)c(=O)c(NC(=O)C(Cc2ccc(C(C)(C)C(=O)O)cc2)NC(=O)Cc2ccc3ccccc3c2)c1C` (centres unmarked) [Compound 222] displayed a dissociation constant Kd in experiment [1] of 1.2 µM. Also, the 50% inhibitory concentration (IC50) in experiment [2] (Homo sapiens, CD4 positive) turned out to be 69 µM.

In the case of `CCCCCCn1cc(-c2ccccc2)c(C)c(NC(=O)C(Cc2ccc(C(C)(C)C(=O)O)cc2)NC(=O)Cc2ccc3ccccc3c2)c1=O` (centres unmarked) [Compound 231], the Kd in experiment [1] was < 8 µM. Besides, the IC50 in experiment [2] (Homo sapiens, CD4 positive) amounted to 57 µM.

The values above are taken from patent US6284768A, “Src family SH2 domain inhibitors” (Boehringer Ingelheim Pharmaceuticals, Inc., priority 1999, dated 2001).
